Tests used:
[1] = test system: patients with type-1 diabetes; test: Standardized mixed meal test after 4 weeks pramlintide TID added to CSII (Example 1); assay type: in vivo, human
Description: This Study Assesses the Effect of the Amylin Agonist Pramlintide on Post-Prandial Plasma Glucose and Triglyceride Excursions in Patients with Type-1 Diabetes Intensively Treated with Continuous Subcutaneous Insulin Infusion (CSII).
All 23 patients in this study are ≧16 years of age, have type-I diabetes for ≧1 year and have been intensively treated (CSII, basal/bolus regimen) for at least 6 months. Patients are using either lispro (n=21) or regular (n=2) insulin, have not changed their daily insulin dose by more than ±10% for 2 months prior to the study, and have been free from severe hypo- and hyperglycemic symptoms for at least 4 weeks prior to the study. Exclusion criteria include a clinically significant history or presence of heart disease, uncontrolled hypertension (blood pressure ≧160/90 mm Hg), gastrointestinal, hepatic, renal, or central nervous system disorders, acute illness, a history of drug or alcohol abuse, or treatment with drugs known to affect gastrointestinal motility or glucose metabolism.
The study consists of 3 time periods (baseline, 4 weeks on-therapy, 2 weeks off-therapy). At the end of each time period (weeks 0, 4, 6), patients are evaluated at the clinical research center (CRC). Each evaluation includes a standardized meal test.
The first evaluation (baseline) is conducted when patients are solely treated with their usual CSII regimen. After the baseline evaluation, patients are randomized to self-administer either placebo (n=6) or pramlintide (n=17) TID with major meals, in addition to their existing CSII therapy, for 4 weeks. The placebo group is included to provide data that could be used to determine adequate power analyses when planning future studies and not for the purpose of placebo comparisons. […]
On each of the 3 CRC visits, patients undergo a standardized mixed meal test the morning after an overnight fast. […] Blood samples are processed in accordance with standard clinical practice using a reference lab and commercially available products (e.g., quantitative enzymatic in vitro assay for Triglycerides GPO-PAP, Roche Diagnostics). […]

[2] = test system: subjects with type 1 diabetes; test: Single-dose crossover study of pramlintide injection timing relative to a standardized breakfast, type 1 diabetes (Example 2); assay type: in vivo, human; details: pramlintide 60 μg SC, -15 to +30 min relative to meal
Description: (§1) In this example, a randomized, single-blind, placebo-controlled, five-way crossover study is designed to examine the effect of the timing of pramlintide injection relative to meal ingestion on postprandial plasma glucose profiles and triglycerides in subjects with type 1 diabetes and subjects with type 2 diabetes using insulin. Three study groups are defined by diabetes type and mealtime insulin used in their treatment regimen. On 5 study days, subjects receive a single dose of one of five treatments (A, B, C, D, or E) in random order:
(§2) Each treatment (pramlintide or placebo) is administered subcutaneously (SC) within specified times relative to a standardized breakfast after an overnight fast. Subjects are randomly assigned to one of four treatment sequences according to a randomization schedule generated for each study group.
(§3) Subjects with type 1 diabetes received pramlintide 60 μg or placebo (equivalent volume). Subjects with type 2 diabetes using insulin receive pramlintide 120 μg or placebo (equivalent volume). Subjects maintain their usual insulin regimen during the study; if necessary, insulin dose adjustments are made in consultation with study personnel to facilitate achievement of fasting fingerstick glucose values in the range of ≧80 mg/dL and ≦250 mg/dL while avoiding hypoglycemia. The timing of the short-acting insulin dose relative to the standardized breakfast is based on recommendations in the respective package inserts for the insulin (0 min for insulin lispro and −30 min for regular insulin).
The study population consists of three study groups, defined by diabetes type and type of mealtime insulin used in their treatment regimen. Study Group 1: Subjects with type 1 diabetes using insulin lispro. Study Group 2: Subjects with type 1 diabetes using regular insulin. Study Group 3: Subjects with type 2 diabetes using insulin lispro. Fifty-nine subjects (21 type 1 subjects using insulin lispro; 19 type 1 subjects using regular insulin; and 19 type 2 subjects using insulin lispro) are enrolled in this study.

[3] = test system: subjects with type 2 diabetes using insulin; test: Single-dose crossover study of pramlintide injection timing relative to a standardized breakfast, type 2 diabetes using insulin (Example 2); assay type: in vivo, human; details: type 2 patients treated with lispro insulin, pramlintide 120 μg SC, -15 to +30 min relative to meal
Description: as §1, §2
as §3, with “The timing of the short-acting insulin dose relative to the standardized breakfast is based on recommendations in the respective package inserts for the insulin (0 min for insulin lispro and −30 min for regular insulin).” left out

[4] = test system: patients with type-1 diabetes; details: mealtime s.c. injections in addition to mealtime insulin, cited from earlier work

SMILES: CC[C@H](C)[C@H](NC(=O)[C@@H]1CCCN1C(=O)CNC(=O)[C@H](Cc1ccccc1)NC(=O)[C@H](CC(N)=O)NC(=O)[C@H](CC(N)=O)NC(=O)[C@H](CO)NC(=O)[C@H](CO)NC(=O)[C@H](Cc1c[nH]cn1)NC(=O)[C@@H](NC(=O)[C@H](CC(C)C)NC(=O)[C@H](Cc1ccccc1)NC(=O)[C@H](CC(N)=O)NC(=O)[C@H](C)NC(=O)[C@H](CC(C)C)NC(=O)[C@H](CCCNC(=N)N)NC(=O)[C@H](CCC(N)=O)NC(=O)[C@@H](NC(=O)[C@H](C)NC(=O)[C@@H]1CSSC[C@H](NC(=O)[C@@H](N)CCCCN)C(=O)N[C@@H](CC(N)=O)C(=O)N[C@@H]([C@@H](C)O)C(=O)N[C@@H](C)C(=O)N[C@@H]([C@@H](C)O)C(=O)N1)[C@@H](C)O)C(C)C)C(=O)N[C@@H](CC(C)C)C(=O)N1CCC[C@H]1C(=O)N1CCC[C@H]1C(=O)N[C@H](C(=O)N[C@@H](CC(N)=O)C(=O)N[C@H](C(=O)NCC(=O)N[C@@H](CO)C(=O)N[C@@H](CC(N)=O)C(=O)N[C@H](C(=O)N[C@@H](Cc1ccc(O)cc1)C(N)=O)[C@@H](C)O)C(C)C)[C@@H](C)O [pramlintide, ^25, 28, 29Pro-h-amylin]
- post-prandial triglyceride excursions, mean incremental AUC ([1]; end of 4-week pramlintide treatment period, s.c. 15 min prior to meal, plus CSII, baseline period 65.7±87.6, p<0.05): 16.7 ± 56.8 mg·min/dL
- post-prandial glucose response to a mixed meal ([1]; pramlintide added to insulin, type-1 diabetic patients): reduces
- post-prandial triglyceride excursions, mean incremental AUC ([1]; week 6, 2 weeks after return to pre-treatment therapy (CSII only), off-therapy): 56.2 ± 87.3 mg·min/dL
- postprandial glucose excursions ([2]; type 1 patients treated with lispro insulin): markedly improves
- postprandial triglyceride concentrations ([2]; type 1 patients treated with lispro insulin, FIG. 2): markedly improves
- postprandial glucose excursions ([2]; type 1 patients treated with regular insulin): markedly improves
- postprandial triglyceride concentrations ([2]; type 1 patients treated with regular insulin, FIG. 3): markedly improves
- postprandial glucose excursions [3]: markedly improves
- postprandial triglyceride concentrations ([3]; FIG. 4): markedly improves
- rate of gastric emptying ([4]; Kong et al. 1998): slows
- mealtime glucagon secretion ([4]; Nyholm et al. 1999, Fineman et al. 2002): suppresses
- post-prandial glucose excursions ([4]; Nyholm et al. 1999, Thompson et al. 1997): improves

Reference: patent publication US20030130177A1, “Use of amylin agonists to modulate triglycerides” (priority 2002, published 2003)
